In brackets after ≈: the same amount, converted by molar mass.

Series [1] concerns HT-29. In words: Antiproliferative activity against human HT-29 cells assessed as inhibition of cell growth incubated for 72 hrs by MTT assay. Format: functional, cell-based. The following applies: HT-29, 72 h.
The target of series [2] is T1, DNA topoisomerase 1 (Homo sapiens) (UniProt P11387).
T1 sequence (whole entry): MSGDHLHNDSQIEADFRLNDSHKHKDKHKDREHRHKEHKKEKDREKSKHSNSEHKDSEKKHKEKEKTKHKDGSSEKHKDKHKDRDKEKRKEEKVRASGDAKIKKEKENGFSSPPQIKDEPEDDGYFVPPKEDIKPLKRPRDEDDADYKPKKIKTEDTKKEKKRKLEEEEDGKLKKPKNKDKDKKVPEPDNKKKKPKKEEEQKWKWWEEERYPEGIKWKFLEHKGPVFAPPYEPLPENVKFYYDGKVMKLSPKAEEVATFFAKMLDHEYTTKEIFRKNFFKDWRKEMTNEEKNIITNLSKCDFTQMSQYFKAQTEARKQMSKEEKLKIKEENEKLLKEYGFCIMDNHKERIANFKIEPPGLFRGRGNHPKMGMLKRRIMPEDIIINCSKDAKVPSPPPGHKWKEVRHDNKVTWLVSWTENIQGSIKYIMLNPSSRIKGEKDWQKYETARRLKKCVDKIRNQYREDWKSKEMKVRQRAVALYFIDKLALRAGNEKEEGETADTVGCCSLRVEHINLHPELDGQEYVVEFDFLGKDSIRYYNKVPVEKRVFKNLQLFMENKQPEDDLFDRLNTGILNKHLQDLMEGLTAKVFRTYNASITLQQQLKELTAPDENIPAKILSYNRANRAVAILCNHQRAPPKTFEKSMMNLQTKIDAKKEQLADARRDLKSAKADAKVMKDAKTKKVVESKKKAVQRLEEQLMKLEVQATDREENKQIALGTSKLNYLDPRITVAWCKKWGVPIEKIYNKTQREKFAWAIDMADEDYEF
As to the kind of experiment: Inhibition of topoisomerase 1 (unknown origin) mediated DNA relaxation at 100 uM preincubated for 20 mins followed by pBR322 plasmid DNA addition and measured after 15 mins by red nucleic acid gel staining based agarose gel electrophoresis. The following applies: time 35.0 min.

For series [3], the system named is LoVo. As to the kind of experiment: Antiproliferative activity against human LoVo cells assessed as inhibition of cell growth incubated for 72 hrs by MTT assay. Format: functional, cell-based.
A short description of series [4]: Aqueous solubility of compound by HPLC analysis. Format: physicochemical.
Series [5] has as its system HCT-116. In words: Antiproliferative activity against human […] cells assessed as inhibition of cell growth incubated for 72 hrs by MTT assay. Format: functional, cell-based. The following applies: HCT-116, 72 h.
In series [6] the test system is RKO. In words: Antiproliferative activity against human RKO cells assessed as inhibition of cell growth incubated for 72 hrs by MTT assay. Format: functional, cell-based.
The test system of series [7] is SK-HEP1. In words: Antiproliferative activity against human SK-HEP1 cells assessed as inhibition of cell growth incubated for 72 hrs by MTT assay. Format: functional, cell-based. The settings on record: SK-HEP1, 72 h.
The subject of series [8] is SGC-7901. In words: Antiproliferative activity against human SGC-7901 cells assessed as inhibition of cell growth incubated for 72 hrs by MTT assay. The format is functional, cell-based. The settings on record: SGC-7901, 72 h.
Series [9] deals with MCF7. In words: Antiproliferative activity against human MCF7 cells assessed as inhibition of cell growth incubated for 72 hrs by MTT assay. Format: functional, cell-based. The settings on record: MCF7, 72 h.
Series [10] deals with HGC-27. As to the kind of experiment: Antiproliferative activity against human HGC-27 cells assessed as inhibition of cell growth incubated for 72 hrs by MTT assay. Format: functional, cell-based. The following applies: HGC-27, 72 h.
Series [11] concerns Huh-7. In words: Antiproliferative activity against human Huh-7 cells assessed as inhibition of cell growth incubated for 72 hrs by MTT assay. Format: functional, cell-based. The settings on record: Huh-7, 72 h.
In series [12] the test system is MGC-803. As to the kind of experiment: Antiproliferative activity against human MGC-803 cells assessed as inhibition of cell growth incubated for 72 hrs by MTT assay. Format: functional, cell-based. The settings on record: MGC-803, 72 h.

On to `O=C1c2cc(F)ccc2N(c2cccc(F)c2)C2c3[nH]c4ccc(O)cc4c3CCN12` (racemic), for which the IC50 in series [1] worked out at 160 nM; in series [3] it was 350 nM; in series [5], 200 nM; in series [6] it was 170 nM. In addition, in [2], the inhibition entry is recorded as “Active; Little Effect Observed”. This compound had a solubility in series [4] of 7.58 µg/mL (≈ 18.2 µM).

On to `CC(C)(C)OC(=O)N[C@@H](CCC(N)=O)C(=O)Oc1ccc2[nH]c3c(c2c1)CCN1C(=O)c2cc(F)ccc2N(c2cccc(F)c2)[C@@H]31`, for which the IC50 in series [7] came out at 37000 nM; in series [1], 26800 nM; in [8], 59600 nM; in [9], 24600 nM; in series [3], 12700 nM; in series [10] it was 18800 nM. Moreover, the IC50 stood at 19200 nM in series [5], 11500 nM in series [11], 9300 nM in series [6] and 15100 nM in series [12]. Further, the inhibition result in series [2] was “Active; Better Activity Than Evodiamine”.

On to `CC(C)(C)OC(=O)N[C@@H](Cc1ccccc1)C(=O)Oc1ccc2[nH]c3c(c2c1)CCN1C(=O)c2cc(F)ccc2N(c2cccc(F)c2)[C@@H]31`, for which the IC50 is 37800 nM in series [7]; 30500 nM in series [1]; 47700 nM in series [8]; 47300 nM in [9]; 15700 nM in [3]; 22700 nM in [10]. The IC50 in series [5] came to 26200 nM; in [11], 11800 nM; in series [6], 19500 nM; in [12], 15900 nM.

In the case of `CCC(C)[C@H](NC(=O)OC(C)(C)C)C(=O)Oc1ccc2[nH]c3c(c2c1)CCN1C(=O)c2cc(F)ccc2N(c2cccc(F)c2)[C@H]31` (some centres not stated), the IC50 in series [7] amounted to 970 nM; in [1], 440 nM; in [8] it was 1570 nM; in series [9] it was 810 nM; in series [3], 320 nM; in [10], 520 nM. Moreover, the IC50 in series [5] worked out at 550 nM; in series [11], 310 nM; in [6], 230 nM; in series [12], 480 nM.

In the case of `CC(C)C[C@H](NC(=O)OC(C)(C)C)C(=O)Oc1ccc2[nH]c3c(c2c1)CCN1C(=O)c2cc(F)ccc2N(c2cccc(F)c2)[C@H]31`, the IC50 was 650 nM in [7]; 190 nM in [1]; 690 nM in series [8]; 1100 nM in series [9]; 220 nM in series [3]; 300 nM in series [10]. For the same compound, the half-inhibitory concentration (IC50) in series [5] was 370 nM; in series [11] it was 140 nM; in series [6], 150 nM; in series [12], 320 nM.

(Values after ChEMBL document CHEMBL6074684, “Structure-activity relationship study of novel evodiamine amino acid conjugates with potent anti-colorectal cancer efficacy” (Eur J Med Chem, 2025).)
